We go through 6 compounds from US20060134693A1, “Olfactory cyclic nucleotide-gated channel cell-based assays to identify T1R and T2R taste modulators” (priority 2001, published 2006).

The target of assay [1] is T1, human sweet receptor hT1R2/hT1R3 (Homo sapiens, UniProt Q7RTX0+Q8TE23).
T1 construct: host or cells: human embryonic kidney cells (earlier application U.S. Ser. No. 10/770,127)
T1 sequence (Q8TE23 20-839): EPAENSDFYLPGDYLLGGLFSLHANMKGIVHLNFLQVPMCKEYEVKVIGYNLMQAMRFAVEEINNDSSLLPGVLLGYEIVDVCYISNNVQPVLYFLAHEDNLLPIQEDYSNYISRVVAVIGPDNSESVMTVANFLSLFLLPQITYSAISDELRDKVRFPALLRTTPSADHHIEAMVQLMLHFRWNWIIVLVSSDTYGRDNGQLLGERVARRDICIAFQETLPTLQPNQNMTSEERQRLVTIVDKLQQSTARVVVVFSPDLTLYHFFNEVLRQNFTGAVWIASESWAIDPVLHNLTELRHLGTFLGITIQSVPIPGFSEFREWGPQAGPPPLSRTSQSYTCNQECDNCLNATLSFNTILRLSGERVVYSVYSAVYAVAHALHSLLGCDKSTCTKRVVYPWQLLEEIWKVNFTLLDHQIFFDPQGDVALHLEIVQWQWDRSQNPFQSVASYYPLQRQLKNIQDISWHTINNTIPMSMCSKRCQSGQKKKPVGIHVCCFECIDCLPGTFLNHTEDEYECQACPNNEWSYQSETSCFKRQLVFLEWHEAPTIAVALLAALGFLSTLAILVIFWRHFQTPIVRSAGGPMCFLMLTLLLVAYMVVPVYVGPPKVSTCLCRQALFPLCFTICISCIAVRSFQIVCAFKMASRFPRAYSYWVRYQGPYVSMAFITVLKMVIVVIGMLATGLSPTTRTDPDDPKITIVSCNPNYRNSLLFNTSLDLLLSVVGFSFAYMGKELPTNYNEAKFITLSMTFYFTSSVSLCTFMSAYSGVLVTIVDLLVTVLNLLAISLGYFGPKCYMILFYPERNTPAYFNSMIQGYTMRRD
T1 sequence (Q7RTX0 21-852): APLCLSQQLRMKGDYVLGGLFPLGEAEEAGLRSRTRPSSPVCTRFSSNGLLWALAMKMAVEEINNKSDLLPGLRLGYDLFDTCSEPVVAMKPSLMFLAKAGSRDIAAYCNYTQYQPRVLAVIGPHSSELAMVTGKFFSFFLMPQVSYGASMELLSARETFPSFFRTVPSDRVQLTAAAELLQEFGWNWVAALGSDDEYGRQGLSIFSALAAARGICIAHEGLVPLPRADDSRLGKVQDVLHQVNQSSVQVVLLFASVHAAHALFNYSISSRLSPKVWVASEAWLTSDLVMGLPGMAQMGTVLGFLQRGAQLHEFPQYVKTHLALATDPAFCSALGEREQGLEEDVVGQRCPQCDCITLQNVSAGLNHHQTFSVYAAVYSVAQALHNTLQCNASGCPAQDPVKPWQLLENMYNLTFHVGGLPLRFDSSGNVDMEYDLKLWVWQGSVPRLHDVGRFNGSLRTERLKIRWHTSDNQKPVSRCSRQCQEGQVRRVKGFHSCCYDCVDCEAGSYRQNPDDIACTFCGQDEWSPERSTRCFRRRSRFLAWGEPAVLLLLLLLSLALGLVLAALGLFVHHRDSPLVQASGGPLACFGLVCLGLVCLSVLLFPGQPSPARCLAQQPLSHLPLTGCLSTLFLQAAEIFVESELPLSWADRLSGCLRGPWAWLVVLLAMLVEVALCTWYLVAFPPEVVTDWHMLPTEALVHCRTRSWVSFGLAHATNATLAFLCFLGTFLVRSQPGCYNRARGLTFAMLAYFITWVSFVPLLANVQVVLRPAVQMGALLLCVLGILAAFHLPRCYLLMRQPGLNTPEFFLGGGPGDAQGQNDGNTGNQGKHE
Conditions: prevented by pertussis toxin; cited from earlier work.

The test system of assay [2] is untransfected HEK 293-oCNGC cells. Briefly: Isoproterenol-induced calcium influx in untransfected HEK 293-oCNGC cells. The class given is cell-based, human. Conditions: for effect on isoproterenol-induced calcium influx: cells not expressing hT1R2/hT1R3, increasing concentrations, 200 nM isoproterenol, FIG. 14. As to the method: Delta F/F valves were normalized to the fluorescence obtained after stimulation with 200 nM isoproterenol. Each value corresponds to the mean ± SD of a triplicate determination.
(§1) Modulation of oCNG activity by taste receptors is measured in a cell-based assay that detects changes in intracellular calcium (as described in earlier examples). In brief, human embryonic kidney cells stably expressing the OCNC1 and are β1b subunits of oCNGC are transiently or stably transfected with T1R or T2R receptor plasmids. Transfected cells are seeded into 384-well culture plates, and functional expression is allowed to proceed for about 24 to 48 hours. The cells are then incubated with a calcium specific fluorescent dye (Fluo-4 or Fura-2, available from Molecular Probes) that provides for fast, simple and reliable fluorimetric detection of changes in calcium concentration within the cell.
An experiment was conducted to confirm that the effects of the sweeteners on calcium influx requires the expression of the sweet receptor.
In FIG. 14, it is shown that increasing concentrations of the tested sweeteners had no inhibitory effect on isoproterenol-induced calcium influx in untransfected HEK 293—oCNGC cells. Again, Delta F/F values were normalized to the fluorescence obtained after stimulation with 200 nM isoproternol and each value component to the mean ± SD of a triplicate determination).

The target in a further assay is T2, mT2R05 (Mus musculus, UniProt Q9JKT4).
T2 construct: host or cells: human embryonic kidney cells (earlier application)
T2 sequence (Q9JKT4 1-300): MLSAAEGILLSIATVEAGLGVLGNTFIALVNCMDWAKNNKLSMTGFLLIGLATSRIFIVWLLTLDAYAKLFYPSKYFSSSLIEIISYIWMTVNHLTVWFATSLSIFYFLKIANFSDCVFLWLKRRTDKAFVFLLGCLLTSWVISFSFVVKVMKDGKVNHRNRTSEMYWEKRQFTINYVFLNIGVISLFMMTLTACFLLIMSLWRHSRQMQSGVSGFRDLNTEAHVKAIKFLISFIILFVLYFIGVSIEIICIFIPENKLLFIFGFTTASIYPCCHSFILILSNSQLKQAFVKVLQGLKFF
Conditions: mT2R05-expressing cells; cited from earlier work.

Assay [3] has as its system rat bitter receptors rT2R9. The settings on record: abolished by pertussis toxin; cited from earlier work.
Another assay addresses T3, bitter receptor mT2R05 (Mus musculus, UniProt Q9JKT4).
T3 construct: expressed in transfected cells; host or cells: HEK-293 stably expressing OCNC1 and β1b (HEK-293-oCNGC)
T3 sequence (Q9JKT4 1-300): T2 sequence (Q9JKT4 1-300)
Briefly: Isoproterenol-induced calcium influx in HEK-293-oCNGC cells expressing mT2R05. The class given is cell-based. The settings on record: 200 nM isoproterenol, FIG. 16. The method, then:
Delta F/F values were normalized to the fluorescence obtained after stimulation with 200 nM isoproterenol. Each value corresponds to the mean +1-SD of a triplicate determination. Cells were also treated with PTX as described for the for the preceding figure.
as §1, with “cell. […]” for “cell.”
More specifically, it was shown that PTx prevented inhibition of calcium inluux even with increasing concentrations of cycloheximide in HEK-293—oCNGC cells expressing mT2R05. As in figures above, Delta F/F values were normalized to the fluorescence obtained after stimulation with 200 nM isoproterenol. […]

In assay [4] the target is T4, mouse bitter receptor mT2R05 (Mus musculus, UniProt Q9JKT4).
T4 construct: host or cells: human embryonic kidney cells (earlier application)
T4 sequence (Q9JKT4 1-300): T2 sequence (Q9JKT4 1-300)
The settings on record: abolished by pertussis toxin; cited from earlier work.

In the next assay the target is T5, hT1R1/hT1R3 (Homo sapiens, UniProt Q7RTX0+Q7RTX1).
T5 construct: host or cells: human embryonic kidney cells (earlier application U.S. Ser. No. 10/770,127)
T5 sequence (Q7RTX1 21-841): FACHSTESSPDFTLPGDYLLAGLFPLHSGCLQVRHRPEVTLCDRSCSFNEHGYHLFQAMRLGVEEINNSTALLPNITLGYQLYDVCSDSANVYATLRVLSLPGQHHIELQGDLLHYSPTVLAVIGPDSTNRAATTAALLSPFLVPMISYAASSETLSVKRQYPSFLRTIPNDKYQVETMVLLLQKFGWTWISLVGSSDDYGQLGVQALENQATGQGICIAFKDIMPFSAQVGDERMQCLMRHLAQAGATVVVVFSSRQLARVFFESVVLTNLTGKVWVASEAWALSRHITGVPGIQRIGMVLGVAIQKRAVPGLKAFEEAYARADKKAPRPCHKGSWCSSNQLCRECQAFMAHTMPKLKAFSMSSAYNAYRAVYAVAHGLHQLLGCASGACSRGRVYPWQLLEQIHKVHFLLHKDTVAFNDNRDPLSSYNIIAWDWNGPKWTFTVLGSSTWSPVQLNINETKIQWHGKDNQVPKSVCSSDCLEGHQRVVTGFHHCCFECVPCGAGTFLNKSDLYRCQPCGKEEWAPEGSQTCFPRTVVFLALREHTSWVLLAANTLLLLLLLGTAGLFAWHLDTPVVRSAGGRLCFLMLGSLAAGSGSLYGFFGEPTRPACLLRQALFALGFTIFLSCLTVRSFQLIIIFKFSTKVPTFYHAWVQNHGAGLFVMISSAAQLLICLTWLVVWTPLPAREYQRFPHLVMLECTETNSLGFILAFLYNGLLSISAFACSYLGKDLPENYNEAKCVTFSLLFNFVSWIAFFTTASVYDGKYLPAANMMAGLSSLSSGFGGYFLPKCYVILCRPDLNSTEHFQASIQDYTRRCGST
T5 sequence (Q7RTX0 21-852): T1 sequence (Q7RTX0 21-852)
Conditions: hT1R1/hT1R3-expressing cells; cited from earlier work.

For assay [5], the target named is T6, human umami receptor hT1R1/hT1R3 (Homo sapiens, UniProt Q7RTX0+Q7RTX1).
T6 sequence (Q7RTX1 21-841): T5 sequence (Q7RTX1 21-841)
T6 sequence (Q7RTX0 21-852): T1 sequence (Q7RTX0 21-852)
Conditions: prevented by pertussis toxin; cited from earlier work.

In assay [6] the target is T1, human sweet receptor hT1R2/hT1R3. In words: Isoproterenol-induced calcium influx in HEK-293-oCNGC cells expressing hT1R2/hT1R3. Conditions: PTX 100 ng/ml for 4 hours; 200 nM isoproterenol; 5 mM Aspartame, 2 mM Cyclamate, 4 mM Saccharin, 0.1 mM Neotame; FIG. 15. The class given is cell-based. As to the method:
FIG. 13 contains the result of an experiment showing that increasing concentrations of sweeteners inhibit the isoproterenol-induced-calcium influx in HEK 293-oCNGC cells expressing the human sweet receptor hT1R2/hT1R3. Delta F/F values were normalized to the fluorescence obtained after stimulation with 200 nM isoproterenol. Each value corresponds to the mean ± SD of a triplicate determination.
Cells were left untreated (control) or treated with PTX for 4 hours at 100 ng/ml prior to the experiment. Cells were then stimulated with 200 nM isoproterenol in the presence or absence of the indicated sweeteners (5 mM Aspartame, 2 mM Cyclamate, 4 mM Saccharin and 0.1 mM Neotame).
as §1
An experiment was conducted to assess the effect of various sweeteners (known to activate the human T1R2/T1R3 sweet receptor) on isoproterenol-induced calcium influx in HEK-293—oCNGC cells that express the human T1R2/T1R3 sweet receptor. As shown by the results in FIG. 13, increasing concentrations of sweetener inhibits isoproterenol-induced calcium influx in these cells. (In the figure, Delta F/F values were normalized to the fluorescence obtained after stimulation with 200 nM isoproterenol and each value corresponds to the means ± SD of a triplicate determination). […]

Turning to `N[C@H](Cc1c[nH]c2ccccc12)C(=O)O` [D-tryptophan], the ERK1/2 activation result in assay [1] is listed as “activate ERK1/2”.
Take `C[C@@H]1C[C@@H]([C@H](O)CC2CC(=O)NC(=O)C2)C(=O)[C@@H](C)C1` [cycloheximide]: the “response of mT2R05 untransfected cells” value in assay [2] (untransfected HEK 293-oCNGC cells, FIG. 16) is “did not respond”. The “inhibition of forskolin-induced cAMP accumulation” value at mT2R05 is reported as 70%. For the same compound, the ERK1/2 activation result in assay [3] and in assay [4] was “specifically activates ERK1/2” each time. Besides, the “effect on isoproterenol-induced calcium influx after PTx treatment” value on bitter receptor mT2R05 (cells treated with PTx) is “failed to inhibit isoproterenol-induced calcium influx”. Further, at bitter receptor mT2R05 (increasing concentrations), the “effect on isoproterenol-induced calcium influx” value is given as “inhibited isoproterenol-induced calcium influx”.
In the case of `N[C@@H](CCC(=O)O)C(=O)[O-].[Na+]` [monosodium glutamate], at hT1R1/hT1R3, the “decrease of basal levels of cAMP” value is 50%. The ERK1/2 activation result in [5] is listed as “exclusively activates ERK1/2”.
With `COC(=O)[C@H](Cc1ccccc1)NC(=O)[C@H](CC(=O)O)NCCC(C)(C)C` [neotame], the “effect on isoproterenol-induced calcium influx” value in assay [2] is given as “unaffected”. Moreover, the “inhibition of isoproterenol-induced calcium influx after PTx pretreatment” value in assay [6] was “prevented the inhibition”.
Take `O=C1NS(=O)(=O)c2ccccc21` [saccharin]: in assay [2], the “effect on isoproterenol-induced calcium influx” value is recorded as “unaffected”. In [6], the “inhibition of isoproterenol-induced calcium influx after PTx pretreatment” value is given as “prevented the inhibition”. In addition, the ERK1/2 activation entry in [1] is “activate ERK1/2”.
Turning to `OC[C@H]1O[C@@](CO)(O[C@H]2O[C@H](CO)[C@@H](O)[C@H](O)[C@H]2O)[C@@H](O)[C@@H]1O` [sucrose], in [1], the ERK1/2 activation entry was “activate ERK1/2”.
